Laboratory results taken from publication PMC10930102 (Journal of Enzyme Inhibition and Medicinal Chemistry, 2024).

What was measured:
CYP2C19 = biological target: T1, CYP2C19 (Homo sapiens, UniProt P33261); experiment: CYP450 inhibition assay; type: in vitro ADME; conditions: human recombinant enzyme
T1 construct: purchased Reaction Biology Corporation; host or cells: CYP cDNA baculovirus expression systems
Description: Assays were performed by Reaction Biology Corporation. […] CYP assays used human recombinant CYP1A2, CYP2C9, CYP2C19, CYP2D6, and CYP3A4 expressed in CYP cDNA baculovirus expression systems. […] Substrates used were 3-cyano-7-ethoxycoumarin for CYP1A2, 2C19, and 2D6; Vivid OOMR Substrate for CYP2C9; and Vivid BOMR Substrate for CYP3A4. hERG inhibition assays involved a binding competition between the tested compounds and a fluorescently labelled compound tracer (Predictor hERG Tracer Red) for membrane-bound hERG (Predictor hERG Membrane). E-4031 served as the positive control.

ALK = biological target: T2, ALK (Homo sapiens, UniProt Q9UM73); experiment: ALK in vitro enzymatic assay (radioisotope P81 filter-binding, Reaction Biology); type: biochemical; conditions: 20 μM ATP; ten-dose IC50 mode, duplicate, average
T2 construct: purchased Reaction Biology Corporation
T2 sequence (Q9UM73 19-1620): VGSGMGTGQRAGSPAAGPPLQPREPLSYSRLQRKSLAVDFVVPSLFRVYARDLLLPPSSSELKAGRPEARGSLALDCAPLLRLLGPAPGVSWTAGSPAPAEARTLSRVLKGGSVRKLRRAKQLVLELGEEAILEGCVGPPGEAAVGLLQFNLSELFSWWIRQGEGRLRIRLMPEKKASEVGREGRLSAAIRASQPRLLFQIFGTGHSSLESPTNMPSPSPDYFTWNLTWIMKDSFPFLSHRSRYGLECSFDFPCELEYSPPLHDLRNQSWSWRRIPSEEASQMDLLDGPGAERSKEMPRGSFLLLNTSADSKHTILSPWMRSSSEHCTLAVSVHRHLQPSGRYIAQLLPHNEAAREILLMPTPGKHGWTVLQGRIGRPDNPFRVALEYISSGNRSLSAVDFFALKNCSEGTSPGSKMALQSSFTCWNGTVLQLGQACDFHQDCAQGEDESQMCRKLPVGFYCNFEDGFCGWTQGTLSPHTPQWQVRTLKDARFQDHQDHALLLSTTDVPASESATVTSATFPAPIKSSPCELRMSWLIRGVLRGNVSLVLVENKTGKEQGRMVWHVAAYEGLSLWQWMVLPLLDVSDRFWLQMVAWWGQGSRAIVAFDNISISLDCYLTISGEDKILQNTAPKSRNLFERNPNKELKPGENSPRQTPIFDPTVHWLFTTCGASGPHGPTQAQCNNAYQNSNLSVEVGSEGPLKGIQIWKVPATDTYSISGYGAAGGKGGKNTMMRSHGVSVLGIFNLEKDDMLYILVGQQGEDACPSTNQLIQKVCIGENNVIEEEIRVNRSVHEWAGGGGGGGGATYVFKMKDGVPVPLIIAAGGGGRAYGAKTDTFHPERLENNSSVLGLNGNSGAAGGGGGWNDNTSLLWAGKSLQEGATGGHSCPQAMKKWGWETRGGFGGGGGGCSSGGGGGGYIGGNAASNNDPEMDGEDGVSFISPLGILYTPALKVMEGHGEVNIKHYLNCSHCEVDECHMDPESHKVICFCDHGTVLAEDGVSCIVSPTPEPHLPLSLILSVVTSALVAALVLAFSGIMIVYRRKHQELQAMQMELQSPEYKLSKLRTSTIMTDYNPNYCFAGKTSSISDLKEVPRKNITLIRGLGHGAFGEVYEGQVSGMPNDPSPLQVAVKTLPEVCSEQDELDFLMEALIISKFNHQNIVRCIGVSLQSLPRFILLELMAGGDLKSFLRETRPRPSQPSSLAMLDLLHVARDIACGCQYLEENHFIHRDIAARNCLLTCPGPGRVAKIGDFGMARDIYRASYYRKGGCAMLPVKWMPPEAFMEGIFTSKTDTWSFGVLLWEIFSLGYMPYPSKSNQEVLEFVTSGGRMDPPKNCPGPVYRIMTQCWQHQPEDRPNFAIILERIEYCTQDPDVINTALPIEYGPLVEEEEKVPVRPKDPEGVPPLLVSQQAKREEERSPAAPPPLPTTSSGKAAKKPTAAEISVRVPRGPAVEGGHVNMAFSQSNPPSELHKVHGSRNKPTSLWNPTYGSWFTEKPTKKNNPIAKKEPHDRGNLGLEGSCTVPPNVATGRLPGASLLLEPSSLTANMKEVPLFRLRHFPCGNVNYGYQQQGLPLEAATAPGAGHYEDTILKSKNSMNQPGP

ALK G1202R = biological target: T3, ALK G1202R (Homo sapiens, UniProt Q9UM73, G1202R); experiment: ALK mutant in vitro enzymatic assay; type: biochemical; conditions: 20 μM ATP
T3 construct: purchased Reaction Biology Corporation
T3 sequence (Q9UM73 19-1620 G1202R): as the sequence (Q9UM73 19-1620) above, with G1184R counted along it

ALK G1269A = biological target: T4, ALK G1269A (Homo sapiens, UniProt Q9UM73, G1269A); experiment: ALK mutant in vitro enzymatic assay; type: biochemical; conditions: 20 μM ATP
T4 construct: purchased Reaction Biology Corporation
T4 sequence (Q9UM73 19-1620 G1269A): as the sequence (Q9UM73 19-1620) above, with G1251A counted along it

A549 = experiment: SRB antiproliferation assay; type: cell-based; conditions: Homo sapiens, 48 h, read-out: Antiproliferative activity (IC50) A549
hERG = biological target: T5, hERG (Homo sapiens, UniProt Q12809); experiment: hERG binding competition assay (Predictor hERG Tracer Red); conditions: binding competition with fluorescent tracer
T5 construct: purchased
T5 sequence (Q12809 whole entry): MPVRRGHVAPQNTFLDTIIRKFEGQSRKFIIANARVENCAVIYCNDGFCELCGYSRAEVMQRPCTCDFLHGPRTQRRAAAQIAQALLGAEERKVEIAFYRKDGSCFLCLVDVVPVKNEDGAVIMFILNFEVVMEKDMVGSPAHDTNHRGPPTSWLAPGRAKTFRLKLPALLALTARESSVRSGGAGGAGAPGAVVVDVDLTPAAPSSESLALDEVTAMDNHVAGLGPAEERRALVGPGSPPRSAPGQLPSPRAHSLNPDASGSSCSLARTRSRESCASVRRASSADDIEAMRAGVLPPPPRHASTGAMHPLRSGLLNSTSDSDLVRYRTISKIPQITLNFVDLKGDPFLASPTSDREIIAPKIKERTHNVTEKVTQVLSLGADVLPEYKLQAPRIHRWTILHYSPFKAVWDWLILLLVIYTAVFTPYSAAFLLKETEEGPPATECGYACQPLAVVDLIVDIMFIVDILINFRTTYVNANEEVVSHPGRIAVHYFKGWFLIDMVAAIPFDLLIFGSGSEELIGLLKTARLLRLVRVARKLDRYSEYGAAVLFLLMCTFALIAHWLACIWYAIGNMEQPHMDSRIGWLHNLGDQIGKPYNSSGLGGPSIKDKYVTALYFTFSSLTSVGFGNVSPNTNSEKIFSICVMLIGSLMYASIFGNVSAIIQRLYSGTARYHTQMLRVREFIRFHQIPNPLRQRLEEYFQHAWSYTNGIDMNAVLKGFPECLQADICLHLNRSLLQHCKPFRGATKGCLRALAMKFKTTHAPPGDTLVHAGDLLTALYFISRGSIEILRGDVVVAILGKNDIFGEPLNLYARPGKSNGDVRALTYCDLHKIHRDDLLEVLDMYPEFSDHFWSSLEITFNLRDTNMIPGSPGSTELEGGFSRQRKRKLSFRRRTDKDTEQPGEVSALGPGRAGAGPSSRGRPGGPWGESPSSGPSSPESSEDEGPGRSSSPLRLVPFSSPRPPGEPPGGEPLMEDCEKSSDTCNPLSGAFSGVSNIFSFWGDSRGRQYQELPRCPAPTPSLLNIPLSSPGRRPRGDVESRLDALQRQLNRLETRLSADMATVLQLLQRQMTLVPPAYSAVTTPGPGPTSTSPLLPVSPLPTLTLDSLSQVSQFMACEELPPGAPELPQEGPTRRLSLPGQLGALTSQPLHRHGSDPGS

IGF1R = biological target: T6, IGF1R (Homo sapiens, UniProt P08069); experiment: RTK in vitro enzymatic assay; type: biochemical; conditions: 20 μM ATP
T6 construct: purchased Reaction Biology Corporation
T6 sequence (P08069 31-1367): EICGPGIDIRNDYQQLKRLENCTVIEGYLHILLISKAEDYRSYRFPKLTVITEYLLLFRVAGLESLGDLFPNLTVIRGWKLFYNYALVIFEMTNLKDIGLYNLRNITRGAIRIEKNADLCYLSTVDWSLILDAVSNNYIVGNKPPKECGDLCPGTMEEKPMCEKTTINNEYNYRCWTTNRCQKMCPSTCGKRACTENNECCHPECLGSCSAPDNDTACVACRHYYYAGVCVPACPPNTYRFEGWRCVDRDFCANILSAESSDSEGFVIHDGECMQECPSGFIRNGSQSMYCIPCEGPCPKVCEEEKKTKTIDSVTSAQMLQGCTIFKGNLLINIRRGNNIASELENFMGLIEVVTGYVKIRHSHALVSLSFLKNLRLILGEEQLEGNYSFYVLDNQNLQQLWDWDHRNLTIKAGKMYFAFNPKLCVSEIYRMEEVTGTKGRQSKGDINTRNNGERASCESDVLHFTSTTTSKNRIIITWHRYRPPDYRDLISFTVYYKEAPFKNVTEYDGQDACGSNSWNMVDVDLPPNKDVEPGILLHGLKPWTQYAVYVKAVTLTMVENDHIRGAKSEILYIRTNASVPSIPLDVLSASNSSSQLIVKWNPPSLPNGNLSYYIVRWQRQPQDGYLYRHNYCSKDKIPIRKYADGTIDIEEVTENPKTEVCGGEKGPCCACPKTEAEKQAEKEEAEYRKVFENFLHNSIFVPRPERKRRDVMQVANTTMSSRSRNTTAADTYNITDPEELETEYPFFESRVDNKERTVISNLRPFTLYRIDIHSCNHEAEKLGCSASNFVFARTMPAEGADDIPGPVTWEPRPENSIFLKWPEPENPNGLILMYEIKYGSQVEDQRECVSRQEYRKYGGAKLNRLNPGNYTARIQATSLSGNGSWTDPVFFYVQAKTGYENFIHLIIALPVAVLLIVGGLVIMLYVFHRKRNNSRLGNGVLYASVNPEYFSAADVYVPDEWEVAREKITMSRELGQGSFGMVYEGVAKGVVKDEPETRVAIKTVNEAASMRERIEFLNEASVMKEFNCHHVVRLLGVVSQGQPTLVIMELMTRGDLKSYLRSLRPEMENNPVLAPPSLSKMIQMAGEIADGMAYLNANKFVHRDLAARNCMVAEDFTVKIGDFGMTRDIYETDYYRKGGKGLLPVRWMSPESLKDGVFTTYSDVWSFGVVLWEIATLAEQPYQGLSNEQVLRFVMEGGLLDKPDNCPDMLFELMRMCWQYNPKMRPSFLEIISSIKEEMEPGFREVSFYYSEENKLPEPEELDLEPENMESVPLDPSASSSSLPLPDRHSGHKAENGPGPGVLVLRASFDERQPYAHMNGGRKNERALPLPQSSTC

ALK L1196M = biological target: T7, ALK L1196M (Homo sapiens, UniProt Q9UM73, L1196M); experiment: ALK mutant in vitro enzymatic assay; type: biochemical; conditions: 20 μM ATP
T7 construct: purchased Reaction Biology Corporation
T7 sequence (Q9UM73 19-1620 L1196M): as the sequence (Q9UM73 19-1620) above, with L1178M counted along it

U87MG = experiment: SRB antiproliferation assay; type: cell-based; conditions: Homo sapiens, U-87 MG, 48 h, read-out: Antiproliferative activity (IC50) U87MG

T1 sequence (P33261 whole entry): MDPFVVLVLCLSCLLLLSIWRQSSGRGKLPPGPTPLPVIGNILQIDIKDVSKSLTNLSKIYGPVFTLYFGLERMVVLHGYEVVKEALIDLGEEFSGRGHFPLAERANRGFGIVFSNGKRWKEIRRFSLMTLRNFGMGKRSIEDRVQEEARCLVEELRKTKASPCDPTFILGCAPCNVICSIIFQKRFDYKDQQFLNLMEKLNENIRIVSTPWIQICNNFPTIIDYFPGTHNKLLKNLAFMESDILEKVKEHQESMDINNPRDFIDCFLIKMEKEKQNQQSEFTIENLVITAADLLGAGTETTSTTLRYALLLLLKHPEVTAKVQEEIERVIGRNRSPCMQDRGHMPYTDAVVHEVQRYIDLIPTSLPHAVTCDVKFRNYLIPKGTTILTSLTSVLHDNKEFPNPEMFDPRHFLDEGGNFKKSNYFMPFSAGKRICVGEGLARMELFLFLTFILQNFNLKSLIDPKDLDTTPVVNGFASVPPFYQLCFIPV

Compound CC(C)NC(=O)C1CCC(n2c(=NC(=O)c3ccccc3)[nH]c3cc(C=CC(=O)NO)ccc32)CC1 [Compound 3b, (E)-N-(5-((E)-3-(Hydroxyamino)-3-oxoprop-1-en-1-yl)-1-((1S,4S)-4-(isopropylcarbamoyl)cyclohexyl)-1H-benzo[d]imidazol-2(3H)-ylidene)benzamide] has an IC50 (CYP2C19) of 7860 nM, an IC50 (ALK) of 16 nM and an IC50 (ALK G1202R) of 51 nM. For the same compound, the IC50 (ALK G1269A) was 50 nM, the IC50 (A549) was 330 ± 30 nM and the IC50 (hERG) was greater than 10000 nM. For the same compound, the “IC50 hERG” value (hERG) was “no inhibitory affect”, the IC50 (IGF1R) was 4840 nM and the IC50 (ALK L1196M) was 4.9 nM. The IC50 (U87MG) was 620 ± 100 nM.
